These results are taken from ChEMBL document CHEMBL4364302, “4-Aminoquinoline-based compounds as antileishmanial agents that inhibit the energy metabolism of Leishmania” (Eur J Med Chem, 2019).

One data set has as its system HMEC-1. As to the kind of experiment: Cytotoxicity against human HMEC1 cells assessed as cell viability measured after 72 hrs by MTT assay. In kind it is cell-based. Conditions: HMEC-1, 72 h. For orientation: Formazan colour is commonly taken as a measure of viable cells.
Data set [1] can be described thus: Selectivity index, ratio of IC50 for human THP1 cells to IC50 for antimony resistant intracellular amastigote stage of Leishmania infantum LEM3323 isolate. As to conditions: read-out: Ratio IC50. In kind it is toxicity, cell-based.
The subject of data set [2] is Leishmania infantum. Nature of the data set: Antileishmanial activity against miltefosine and paromomycin resistant intracellular amastigote stage of Leishmania infantum LEM2126 isolate measured after 72 hrs by MTT assay. In kind it is functional, organism-based.
Data set [3] concerns Leishmania infantum. Nature of the data set: Antileishmanial activity against promastigote stage of Leishmania infantum LEM3049 isolate measured after 72 hrs by MTT assay. In kind it is functional, organism-based.
The nature of data set [4]: Selectivity index, ratio of IC50 for human THP1 cells to IC50 for miltefosine resistant intracellular amastigote stage of Leishmania infantum LEM5159 isolate. In kind it is toxicity, cell-based. As to conditions: read-out: Ratio IC50.
Another data set concerns CFPAC-1. Nature of the data set: Cytotoxicity against human CFPAC-1 cells assessed as cell viability measured after 72 hrs by MTT assay. In kind it is cell-based. As to conditions: CFPAC-1, 72 h.
In data set [5] the test system is Leishmania infantum. Nature of the data set: Antileishmanial activity against antimony resistant promastigote stage of Leishmania infantum LEM3323 isolate measured after 72 hrs by MTT assay. In kind it is functional, organism-based.
For data set [6], the system named is Leishmania infantum. As to the kind of experiment: Antileishmanial activity against miltefosine resistant intracellular amastigote stage of Leishmania infantum LEM5159 isolate measured after 72 hrs by MTT assay. In kind it is functional, organism-based.
Data set [7] has as its system Leishmania infantum. Nature of the data set: Antileishmanial activity against intracellular amastigote stage of Leishmania infantum LEM3049 isolate measured after 72 hrs by MTT assay. In kind it is functional, organism-based.
Data set [8] in a line: Selectivity index, ratio of IC50 for human THP1 cells to IC50 for intracellular amastigote stage of Leishmania infantum. In kind it is toxicity, cell-based. As to conditions: read-out: Ratio IC50.
The nature of data set [9]: Selectivity index, ratio of IC50 for human THP1 cells to IC50 for miltefosine and paromomycin resistant intracellular amastigote stage of Leishmania infantum LEM2126 isolate. Conditions: read-out: Ratio IC50. In kind it is toxicity, cell-based.
The subject of data set [10] is Leishmania braziliensis. Nature of the data set: Antileishmanial activity against intracellular amastigote stage of Leishmania braziliensis MHOM/IT/2006/ISS2848 assessed as reduction in parasite viability measured after 72 hrs by MTT assay. In kind it is functional, organism-based. As to conditions: MHOM/IT/2006/ISS2848, 72 h.
The nature of data set [11]: Selectivity index, ratio of IC50 for mouse BMDM cells to IC50 for intracellular amastigote stage of Leishmania infantum. In kind it is toxicity, cell-based. As to conditions: read-out: Ratio IC50.
Data set [12] concerns Leishmania infantum. Nature of the data set: Antileishmanial activity against miltefosine and paromomycin resistant promastigote stage of Leishmania infantum LEM2126 isolate measured after 72 hrs by MTT assay. In kind it is functional, organism-based.
Data set [13] has as its system Leishmania infantum. As to the kind of experiment: Antileishmanial activity against promastigote stage of Leishmania infantum MHOM/TN/80/IPT1 assessed as reduction in parasite viability measured after 72 hrs by MTT assay. Conditions: MHOM/TN/80/IPT1, 72 h. In kind it is functional, organism-based.
Data set [14] has as its system Leishmania infantum. Nature of the data set: Antileishmanial activity against miltefosine resistant promastigote stage of Leishmania infantum LEM5159 isolate measured after 72 hrs by MTT assay. In kind it is functional, organism-based.
The test system of data set [15] is Leishmania braziliensis. Nature of the data set: Antileishmanial activity against promastigote stage of Leishmania braziliensis MHOM/IT/2006/ISS2848 assessed as reduction in parasite viability measured after 72 hrs by MTT assay. In kind it is functional, organism-based. Conditions: MHOM/IT/2006/ISS2848, 72 h.
Data set [16] in a line: Selectivity index, ratio of IC50 for human CFPAC-1 cells to IC50 for intracellular amastigote stage of Leishmania infantum. In kind it is toxicity, cell-based. As to conditions: read-out: Ratio IC50.
Data set [17] relates to Leishmania tropica. As to the kind of experiment: Antileishmanial activity against intracellular amastigote stage of Leishmania tropica MHOM/IT/2012/ISS3130 assessed as reduction in parasite viability measured after 72 hrs by MTT assay. In kind it is functional, organism-based. Conditions: MHOM/IT/2012/ISS3130, 72 h.
A further data set concerns THP-1. As to the kind of experiment: Cytotoxicity against human THP1 cells assessed as cell viability measured after 72 hrs by MTT assay. In kind it is cell-based. Conditions: THP-1, 72 h.
Data set [18] relates to Leishmania tropica. As to the kind of experiment: Antileishmanial activity against promastigote stage of Leishmania tropica MHOM/IT/2012/ISS3130 assessed as reduction in parasite viability measured after 72 hrs by MTT assay. In kind it is functional, organism-based. Conditions: MHOM/IT/2012/ISS3130, 72 h.
The test system of data set [19] is Leishmania infantum. Nature of the data set: Antileishmanial activity against antimony resistant intracellular amastigote stage of Leishmania infantum LEM3323 isolate measured after 72 hrs by MTT assay. In kind it is functional, organism-based.
The subject of data set [20] is Leishmania infantum. As to the kind of experiment: Antileishmanial activity against intracellular amastigote stage of Leishmania infantum MHOM/TN/80/IPT1 assessed as reduction in parasite viability measured after 72 hrs by MTT assay. In kind it is functional, organism-based. Conditions: MHOM/TN/80/IPT1, 72 h.
Data set [21] can be described thus: Selectivity index, ratio of IC50 for human THP1 cells to IC50 for intracellular amastigote stage of Leishmania infantum LEM3049 isolate. In kind it is toxicity, cell-based. As to conditions: read-out: Ratio IC50.
The nature of data set [22]: Selectivity index, ratio of IC50 for human HMEC1 cells to IC50 for intracellular amastigote stage of Leishmania infantum. In kind it is toxicity, cell-based. Conditions: read-out: Ratio IC50.
The next data set has as its system BMDM. Nature of the data set: Cytotoxicity against mouse BMDM cells assessed as cell viability measured after 72 hrs by MTT assay. In kind it is cell-based.

As to `C[C@@H]1[C@H](O)[C@@H](C)/C=C/C=C/C=C/C=C/C=C/C=C/C=C/[C@H](O[C@@H]2O[C@H](C)[C@@H](O)[C@H](N)[C@@H]2O)C[C@@H]2O[C@](O)(C[C@@H](O)C[C@@H](O)[C@H](O)CC[C@@H](O)C[C@@H](O)CC(=O)O[C@H]1C)C[C@H](O)[C@H]2C(=O)O` [AMPHOTERICIN B], the IC50 (commonly the concentration needed to halve the response being measured) was greater than 10 µM in the data set with HMEC-1; 0.16 µM in the data set on Leishmania infantum [2]; 0.06 µM in the data set on Leishmania infantum [3]; greater than 10 µM with CFPAC-1; 0.07 µM with Leishmania infantum [5]; 0.16 µM in the data set with Leishmania infantum [6]. The IC50 with Leishmania infantum [7] is 0.17 µM; in the data set with Leishmania braziliensis [10], 0.2 µM; in the data set on Leishmania infantum [12] it was 0.1 µM; in the data set with Leishmania infantum [13], 0.09 to 0.15 µM; in the data set on Leishmania infantum [14], 0.05 µM; in the data set on Leishmania braziliensis [15] it was 0.183 µM. The IC50 with Leishmania tropica [17] is 0.16 µM; in the data set with THP-1, greater than 10 µM; with Leishmania tropica [18] (read-out: IC50) it was 0.12 µM; in the data set on Leishmania infantum [19], 0.18 µM; with Leishmania infantum [20], 0.18 µM; in the data set on BMDM, greater than 10 µM. Also, the selectivity ratio is 155 in [1]; 174 in [4]; greater than 50 in data set [8]; 174 in [9]; greater than 50 in [11]; greater than 50 in [16]. Further, the selectivity ratio in [21] was 164; in data set [22], greater than 50.
On to `CCCCCCCCCCCCCCCCOP(=O)([O-])OCC[N+](C)(C)C` [MILTEFOSINE], for which the IC50 in the data set on Leishmania braziliensis [10] was found to be 0.89 µM; in the data set on Leishmania infantum [13], 1.43 µM; in the data set with Leishmania braziliensis [15], 7.59 µM; in the data set with Leishmania tropica [17] it was 1.15 µM; with Leishmania tropica [18] it was 10.5 µM.
For the molecule `NC[C@@H]1O[C@H](O[C@H]2[C@@H](O)[C@H](O[C@@H]3[C@@H](O)[C@H](N)C[C@H](N)[C@H]3O[C@H]3O[C@H](CO)[C@@H](O)[C@H](O)[C@H]3N)O[C@@H]2CO)[C@H](N)[C@@H](O)[C@@H]1O` [PAROMOMYCIN], in the data set on Leishmania infantum [13], the IC50 turned out to be 427 µM.
